In US9815796B2 (Merck Sharp & Dohme Corp., priority 2013, dated 2017) one finds Ki data, which are given here for 26 molecules.

The structures appear in SMILES notation. Like-named read-outs stand apart in the source and are kept apart here.

In one assay the target is human PDE2A1 (Homo sapiens (Human), UniProt O00408). Kind of assay: IMAP FP PDE selectivity panel, human PDE2A1. Type of assay: biochemical. In outline:
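IMAP FP format: substrate 50 nM FAM-cAMP plus 1000 nM cGMP, enzyme (insect-cell GST-tagged human PDE2A1) at ~20% conversion, 60 min reaction at room temperature. Apparent inhibition constants calculated from parallel/perpendicular fluorescence with KM 10,000 nM.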

For the next assay, the target named is Rhesus PDE2A3 (Macaca mulatta, UniProt B3VTJ2). Kind of assay: PDE2 fluorescence polarization (IMAP FP) inhibition assay, rhesus enzyme. Type of assay: biochemical, rhesus macaque. In short, it runs like this: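 IMAP FP (mP from parallel and perpendicular fluorescence against substrate-only control) was read ≥1 h after adding binding reagent. The preceding 60 min room-temperature reaction contained FAM-cAMP (50 nM) and cGMP (1 uM) in pH 7.2 Tris buffer with MgCl2 and DTT. Enzyme was supernatant of sonicated AD293 cells expressing rhesus PDE2A3; compounds were 3-fold titrated, DMSO 1% final.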
(In general: Fluorescence polarisation rises when a labelled molecule tumbles more slowly, as on binding a larger partner.)

The mark [1] stands for this setting: Human PDE2, Lab A, read-out: Human PDE2 Ki (nM) - Lab A.
The mark [2] stands for this setting: Rhesus PDE2, Lab A, read-out: Rhesus PDE2 Ki (nM) - Lab A.
[3] abbreviates: Human PDE2, Lab B, read-out: Human PDE2 Ki (nM) - Lab B.
Setting [4] is: Rhesus PDE2, Lab B, read-out: Rhesus PDE2 Ki (nM) - Lab B.

Chain of Rhesus PDE2A3 (B3VTJ2 1-941): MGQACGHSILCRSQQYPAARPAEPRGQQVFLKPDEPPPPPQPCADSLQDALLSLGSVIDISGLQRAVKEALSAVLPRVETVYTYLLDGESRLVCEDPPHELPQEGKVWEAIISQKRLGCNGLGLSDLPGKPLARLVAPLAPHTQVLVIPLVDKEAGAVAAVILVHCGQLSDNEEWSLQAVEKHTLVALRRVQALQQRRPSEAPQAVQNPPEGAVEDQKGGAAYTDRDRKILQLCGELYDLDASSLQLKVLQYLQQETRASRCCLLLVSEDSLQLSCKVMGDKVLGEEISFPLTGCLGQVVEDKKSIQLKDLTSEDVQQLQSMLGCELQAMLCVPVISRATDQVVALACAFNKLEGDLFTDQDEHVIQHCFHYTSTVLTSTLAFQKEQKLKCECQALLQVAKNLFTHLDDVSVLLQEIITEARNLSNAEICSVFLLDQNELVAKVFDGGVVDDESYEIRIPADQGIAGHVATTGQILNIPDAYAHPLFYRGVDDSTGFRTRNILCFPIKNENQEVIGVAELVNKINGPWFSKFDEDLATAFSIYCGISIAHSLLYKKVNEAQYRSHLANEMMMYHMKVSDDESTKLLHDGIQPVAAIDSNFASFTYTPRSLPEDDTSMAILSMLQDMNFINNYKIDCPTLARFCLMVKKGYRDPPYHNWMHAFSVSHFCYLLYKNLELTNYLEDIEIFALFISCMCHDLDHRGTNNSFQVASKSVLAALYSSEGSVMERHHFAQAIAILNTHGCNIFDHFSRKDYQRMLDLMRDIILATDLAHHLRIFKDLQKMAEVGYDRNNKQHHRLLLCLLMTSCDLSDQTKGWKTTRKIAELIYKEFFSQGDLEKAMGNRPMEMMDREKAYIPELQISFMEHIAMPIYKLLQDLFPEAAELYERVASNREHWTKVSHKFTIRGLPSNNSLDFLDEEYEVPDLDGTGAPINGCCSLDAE
Chain of human PDE2A1 (O00408 other isoform, or with tags, fused parts or gaps): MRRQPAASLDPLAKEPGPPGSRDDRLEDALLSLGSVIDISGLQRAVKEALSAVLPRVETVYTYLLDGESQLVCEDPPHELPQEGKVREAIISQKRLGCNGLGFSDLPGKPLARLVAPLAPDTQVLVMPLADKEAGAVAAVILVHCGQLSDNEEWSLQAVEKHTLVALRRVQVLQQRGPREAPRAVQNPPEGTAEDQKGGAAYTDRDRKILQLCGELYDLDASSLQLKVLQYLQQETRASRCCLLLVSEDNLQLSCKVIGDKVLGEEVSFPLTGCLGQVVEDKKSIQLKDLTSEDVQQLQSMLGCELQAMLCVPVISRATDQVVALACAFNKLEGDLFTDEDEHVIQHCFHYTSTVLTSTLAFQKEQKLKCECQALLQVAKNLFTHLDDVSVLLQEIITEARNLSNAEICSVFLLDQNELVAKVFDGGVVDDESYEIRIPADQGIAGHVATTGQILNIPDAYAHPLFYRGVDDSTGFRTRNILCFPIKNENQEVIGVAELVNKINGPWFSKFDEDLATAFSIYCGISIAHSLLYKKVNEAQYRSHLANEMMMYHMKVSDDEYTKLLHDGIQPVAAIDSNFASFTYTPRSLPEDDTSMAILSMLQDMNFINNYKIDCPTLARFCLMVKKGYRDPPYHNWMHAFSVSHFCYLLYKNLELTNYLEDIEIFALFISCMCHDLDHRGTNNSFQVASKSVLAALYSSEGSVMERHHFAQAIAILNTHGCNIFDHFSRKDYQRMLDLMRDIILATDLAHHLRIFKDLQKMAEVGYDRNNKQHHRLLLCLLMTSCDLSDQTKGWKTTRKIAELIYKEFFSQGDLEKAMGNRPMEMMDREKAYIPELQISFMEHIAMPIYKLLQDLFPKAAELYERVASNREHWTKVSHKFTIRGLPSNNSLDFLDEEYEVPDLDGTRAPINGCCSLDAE

Turning to `O=C(NC1(c2ccc(C(F)(F)F)cc2)CC1)c1cc(=O)[nH]c(C2CC2)n1` [Example 292, 2-cyclopropyl-6-oxo-N-{1-[4-(trifluoromethyl)phenyl]cyclopropyl}-1,6-dihydropyrimidine-4-carboxamide], the Ki at human PDE2A1 (setting [1]) is 12 nM; on Rhesus PDE2A3 (setting [2]) it was 14 nM.

In the case of `CC[C@@H](NC(=O)c1cc(=O)[nH]c(C)n1)c1ccc(SC(F)(F)F)cc1` [Example 29, 2-methyl-6-oxo-N-[(1R)-1-{4-[(trifluoromethyl)sulfanyl]phenyl}propyl]-1,6-dihydropyrimidine-4-carboxamide], the inhibition constant Ki worked out at 4.9 nM on human PDE2A1 (setting [1]) and 9.2 nM at Rhesus PDE2A3 (setting [2]).

Turning to `CSCC(NC(=O)c1cc(=O)[nH]c(C)n1)c1ccc(C(F)(F)F)cc1` (centres unmarked) [Example 131, 2-methyl-N-{2-(methylsulfanyl)-1-[4-(trifluoromethyl)phenyl]ethyl}-6-oxo-1,6-dihydropyrimidine-4-carboxamide], the inhibitory constant (Ki) at human PDE2A1 (setting [1]) was 123 nM; on Rhesus PDE2A3 (setting [2]) it was 170 nM.

For `COc1ccc(Cc2nc(C(=O)N[C@@H](c3ccc(C(F)(F)F)cc3)C3CC3)cc(=O)[nH]2)cc1F` [Example 525, N-{(R)-cyclopropyl[4-(trifluoromethyl)phenyl]methyl}-2-(3-fluoro-4-methoxybenzyl)-6-oxo-1,6-dihydropyrimidine-4-carboxamide], the Ki on human PDE2A1 (setting [3]) came to 1.9 nM; at Rhesus PDE2A3 (setting [4]), 2.3 nM.

`CC(C)(NC(=O)c1cc(=O)[nH]c(C2CC2)n1)c1ccc(C(F)(F)F)cc1` [Example 293, 2-cyclopropyl-N-{1-methyl-1-[4-(trifluoromethyl)phenyl]ethyl}-6-oxo-1,6-dihydropyrimidine-4-carboxamide]: the Ki came to 20 nM at human PDE2A1 (setting [1]) and 22 nM at Rhesus PDE2A3 (setting [2]).

For `C[C@@H](NC(=O)c1cc(=O)[nH]c(C2CC2)n1)c1ccc(S(F)(F)(F)(F)F)cc1` [Example 227, 2-cyclopropyl-6-oxo-N-{(1R)-1-[4-(pentafluoro-λ^6-sulfanyl)phenyl]ethyl}-1,6-dihydropyrimidine-4-carboxamide], the values for the inhibition constant (Ki) on human PDE2A1 (setting [1]) and on Rhesus PDE2A3 (setting [2]) were 6.5 nM and 12 nM, respectively.

`CC(C)(NC(=O)c1cc(=O)[nH]c(-c2ccccc2)n1)c1ccc(Br)cc1` [Example 340, N-[1-(4-bromophenyl)-1-methylethyl]-6-oxo-2-phenyl-1,6-dihydropyrimidine-4-carboxamide]: the inhibition constant (Ki) is 83 nM on human PDE2A1 (setting [3]), 49 nM on Rhesus PDE2A3 (setting [2]) and 109 nM on Rhesus PDE2A3 (setting [4]).

For `CC[C@@H](NC(=O)c1cc(=O)[nH]c(C2CC2)n1)c1ccc(C(F)(F)F)c(F)c1` [Example 254, 2-cyclopropyl-N-{(1R)-1-[3-fluoro-4-(trifluoromethyl)phenyl]propyl}-6-oxo-1,6-dihydropyrimidine-4-carboxamide], the Ki at human PDE2A1 (setting [1]) is roughly 13 nM; on human PDE2A1 (setting [3]), 22 nM; on Rhesus PDE2A3 (setting [2]), 17 nM; on Rhesus PDE2A3 (setting [4]), 23 nM.

For the molecule `C[C@@H](NC(=O)c1cc(=O)[nH]c(C2CC2)n1)c1cc(F)c(C(F)(F)F)cc1F` [Example 440, 2-cyclopropyl-N-{(1R)-1-[2,5-difluoro-4-(trifluoromethyl)phenyl]ethyl}-6-oxo-1,6-dihydropyrimidine-4-carboxamide], the results for the Ki on human PDE2A1 (setting [3]) and on Rhesus PDE2A3 (setting [4]) were 60 nM and 51 nM, respectively.

For `CC(C)[C@@H](NC(=O)c1cc(=O)[nH]c(-c2ncccn2)n1)c1ccc(S(F)(F)(F)(F)F)cc1` [Example 265, N-{(1R)-2-methyl-1-[4-(pentafluoro-λ^6-sulfanyl)phenyl]propyl}-6-oxo-1,6-dihydro-2,2′-bipyrimidine-4-carboxamide], the Ki was 1.5 nM at human PDE2A1 (setting [3]), 1.2 nM at Rhesus PDE2A3 (setting [2]) and 1.6 nM at Rhesus PDE2A3 (setting [4]).

Regarding `Cc1nc(C(=O)NC(C)(C)c2ccc(SC(F)(F)F)c(F)c2)cc(=O)[nH]1` [Example 259, N-(1-{3-fluoro-4-[(trifluoromethyl)sulfanyl]phenyl}-1-methylethyl)-2-methyl-6-oxo-1,6-dihydropyrimidine-4-carboxamide], the Ki on human PDE2A1 (setting [3]) worked out at 179 nM; on Rhesus PDE2A3 (setting [2]), 124 nM; at Rhesus PDE2A3 (setting [4]), 209 nM.

With `COCc1nc(C(=O)N[C@H](C)c2ccc(OC(F)(F)F)cc2)cc(=O)[nH]1` [Example 113, 2-(methoxymethyl)-6-oxo-N-{(1R)-1-[4-(trifluoromethoxy)phenyl]ethyl}-1,6-dihydropyrimidine-4-carboxamide], the Ki at human PDE2A1 (setting [1]) was found to be 16 nM; at Rhesus PDE2A3 (setting [2]) it was 84 nM.

Turning to `Cc1nc(C(=O)N[C@H](C)c2ccc(S(F)(F)(F)(F)F)cc2)cc(=O)[nH]1` [Example 37, 2-methyl-6-oxo-N-{(1R)-1-[4-(pentafluoro-λ^6-sulfanyl)phenyl]ethyl}-1,6-dihydropyrimidine-4-carboxamide], the inhibition constant (Ki) at human PDE2A1 (setting [1]) worked out at 14 nM; at human PDE2A1 (setting [3]) it was 27 nM; on Rhesus PDE2A3 (setting [2]) it was 17 nM; at Rhesus PDE2A3 (setting [4]) it was 19 nM.

For the molecule `C[C@@H](NC(=O)c1cc(=O)[nH]c(-c2ncccn2)n1)c1ccc(OC(F)(F)F)cc1F` [Example 101, N-{(1R)-1-[2-fluoro-4-(trifluoromethoxy)phenyl]ethyl}-6-oxo-1,6-dihydro-2,2′-bipyrimidine-4-carboxamide], the inhibition constant (Ki) on human PDE2A1 (setting [1]) is roughly 8.9 nM; on human PDE2A1 (setting [3]), 33 nM; on Rhesus PDE2A3 (setting [2]) it was 28 nM; on Rhesus PDE2A3 (setting [4]), 28 nM.

Regarding `C[C@@H](NC(=O)c1cc(=O)[nH]c(-c2ncccn2)n1)c1ccc(OC(F)(F)F)cc1` [Example 283, 6-oxo-N-{(1R)-1-[4-(trifluoromethoxy)phenyl]ethyl}-1,6-dihydro-2,2′-bipyrimidine-4-carboxamide], the inhibition constant (Ki) worked out at 6 nM on human PDE2A1 (setting [1]) and 8.7 nM at Rhesus PDE2A3 (setting [2]).

As for `CC[C@@H](NC(=O)c1cc(=O)[nH]c(COC)n1)c1ccc(OC(F)(F)F)c(F)c1` [Example 114, N-{(1R)-1-[3-fluoro-4-(trifluoromethoxy)phenyl]propyl}-2-(methoxymethyl)-6-oxo-1,6-dihydropyrimidine-4-carboxamide], the inhibitory constant (Ki) at human PDE2A1 (setting [1]) was roughly 11 nM; on Rhesus PDE2A3 (setting [2]) it was 48 nM.

Consider `Cc1nc(C(=O)N[C@H](C)c2ccc(OC(F)(F)F)c(F)c2)cc(=O)[nH]1` [Example 22, N-{(1R)-1-[3-fluoro-4-(trifluoromethoxy)phenyl]ethyl}-2-methyl-6-oxo-1,6-dihydropyrimidine-4-carboxamide], for which the Ki on human PDE2A1 (setting [1]) is 8.6 nM; on human PDE2A1 (setting [3]), 14 nM; at Rhesus PDE2A3 (setting [2]), 13 nM; at Rhesus PDE2A3 (setting [4]), 14 nM.

On to `CC(NC(=O)c1cc(=O)[nH]c(-c2ccccc2)n1)c1ccc(-n2cncn2)cc1` (centres unmarked) [Example 363, 6-oxo-2-phenyl-N-{1-[4-(1H-1,2,4-triazol-1-yl)phenyl]ethyl}-1,6-dihydropyrimidine-4-carboxamide], for which the inhibition constant (Ki) at human PDE2A1 (setting [3]) was determined as 354 nM; at Rhesus PDE2A3 (setting [2]), 245 nM; at Rhesus PDE2A3 (setting [4]) it was 356 nM.

For `Cc1nc(C(=O)N[C@@H](c2ccc(OC(F)(F)F)c(F)c2)C2CC2)cc(=O)[nH]1` [Example 40, N-{(R)-cyclopropyl[3-fluoro-4-(trifluoromethoxy)phenyl]methyl}-2-methyl-6-oxo-1,6-dihydropyrimidine-4-carboxamide], the Ki on human PDE2A1 (setting [1]) came out at 9.3 nM; on Rhesus PDE2A3 (setting [2]), 19 nM.

Consider `COc1cc(OC(F)(F)F)ccc1C(C)NC(=O)c1cc(=O)[nH]c(-c2ccccc2)n1` (centres unmarked) [Example 187, N-{1-[2-methoxy-4-(trifluoromethoxy)phenyl]ethyl}-6-oxo-2-phenyl-1,6-dihydropyrimidine-4-carboxamide], for which the figures for the Ki on human PDE2A1 (setting [1]) and on Rhesus PDE2A3 (setting [2]) were 3.1 nM and 4.5 nM, respectively.

Take `CC1(C(NC(=O)c2cc(=O)[nH]c(C3CC3)n2)c2ccc(SC(F)(F)F)c(F)c2)CC1` (single isomer, unassigned) [Example 704, (R)- or (S)-2-cyclopropyl-N-((3 fluoro-4-((trifluorormethyl)thio)phenyl)(1-methylcyclopropyl)methyl)-6-oxo-1,6-dihydropyrimidine-4-carboxamide]: the results for the Ki at human PDE2A1 (setting [3]) and on Rhesus PDE2A3 (setting [4]) were 3.6 nM and 4.7 nM, respectively.

With `O=C(N[C@@H](c1ccc(OC(F)F)cc1)C1CC1)c1cc(=O)[nH]c(C2CC2)n1` [Example 446, 2-cyclopropyl-N-{(R)-cyclopropyl[4-(difluoromethoxy)phenyl]methyl}-6-oxo-1,6-dihydropyrimidine-4-carboxamide], the inhibitory constant (Ki) on human PDE2A1 (setting [3]) amounted to 42 nM; on Rhesus PDE2A3 (setting [4]), 43 nM.

As for `CCc1nc(C(=O)N[C@@H](C)c2ccc(C(F)(F)F)cc2)cc(=O)[nH]1` [Example 135, 2-ethyl-6-oxo-N-{(1S)-1-[4-(trifluoromethyl)phenyl]ethyl}-1,6-dihydropyrimidine-4-carboxamide], the Ki on human PDE2A1 (setting [1]) is 1140 nM; at Rhesus PDE2A3 (setting [2]), 1650 nM.

`COCc1nc(C(=O)N[C@@H](c2ccc(OC(F)(F)F)c(F)c2)C2CC2)cc(=O)[nH]1` [Example 117, N-{(R)-cyclopropyl[3-fluoro-4-(trifluoromethoxy)phenyl]methyl}-2-(methoxymethyl)-6-oxo-1,6-dihydropyrimidine-4-carboxamide]: the Ki was roughly 13 nM on human PDE2A1 (setting [1]), 42 nM on human PDE2A1 (setting [3]) and 80 nM on Rhesus PDE2A3 (setting [2]).

Regarding `Cc1nc(C(=O)N[C@@H](c2ccc(SC(F)(F)F)cc2)C(C)(C)C)cc(=O)[nH]1` [Example 58, (R)-N-(2,2-dimethyl-1-(4-((trifluoromethyl)thio)phenyl)propyl)-2-methyl-6-oxo-1,6-dihydropyrimidine-4-carboxamide], the Ki at human PDE2A1 (setting [3]) amounted to 1.7 nM; at Rhesus PDE2A3 (setting [4]) it was 2.5 nM.

Turning to `O=C(NC1(c2ccc(C(F)(F)F)cc2)CCC1)c1cc(=O)[nH]c(-c2ccccc2)n1` [Example 278, 6-oxo-2-phenyl-N-{1-[4-(trifluoromethyl)phenyl]cyclobutyl}-1,6-dihydropyrimidine-4-carboxamide], the Ki on human PDE2A1 (setting [1]) is 12 nM; on Rhesus PDE2A3 (setting [2]), 18 nM.

The Ki is a dissociation constant, usually derived from enzyme kinetics or from competition with a known ligand.
